Assay results published in patent publication US10428114B2, “Type polypeptide targeting tumours” (SICHUAN UNIVERSITY, priority 2015, dated 2019).
≈ marks a conversion by molar mass, not a printed value. Bridges are numbered along the chain shown (N, C = ends). Where no end group is shown, it is not given here. [ ]: non-standard residue; d: D form. GABA = NCCCC(=O)O

What was measured:
4T1 tumours [1] = experiment: Evaluation of 4Abu linked RGD-AAN peptides with doxorubicin, 4T1 model; type: in vivo, Balb/c mice; conditions: doxorubicin 5 mg/kg with peptide
Method: (§1) The dose of doxorubicin was 5 mg/kg for all groups. Two groups were administrated with above-mentioned peptides, respectively.

4T1 tumours [2] = experiment: Screening of the working concentration of nRGD with doxorubicin, 4T1 model; type: in vivo, Balb/c mice; conditions: doxorubicin 5 mg/kg; nRGD 1, 2, 4, 8, 10 mg/kg
Method: The dose of doxorubicin was 5 mg/kg, while the nRGD concentration was 1, 2, 4, 8, 10 mg/kg, respectively.

4T1 tumours [3] = experiment: Pharmacodynamics of paclitaxel and its albumin nanoparticles with nRGD, 4T1 tumour model; type: in vivo
Method: The mice were injected with 10 mg/kg PTX equivalents of drugs or various formulations on day 8, day 12 and day 16.

4T1 tumours [4] = experiment: Pharmacological effects of lycobetaine and its nanostructured lipid carriers with nRGD, 4T1 tumour model; type: in vivo
Method: Normal saline group (N. S), IBT group, lycobetaine nanostructured lipid carriers group (IBT-NLC), lycobetaine and nRGD coadministration group (IBT+nRGD), and lycobetaine nanostructured lipid carriers and nRGD coadministration group (IBT-NLC+nRGD). The mice were injected with 12 mg/kg IBT equivalents of drugs or various formulations on day 8, day 9 and day 10.

[5] = tested on: CoCl2-treated 4T1 and M2 type macrophages, HUVEC, untreated 4T1 cells; experiment: Cell uptake experiments; type: cell-based; conditions: HUVEC with low legumain expression and untreated 4T1 cells
Source text: (§2) The targeting ability of nRGD was studied through in vitro and in vivo experiments by the inventors.

4T1 tumours [6] = experiment: Pharmacological effects of docetaxel and its micells with nRGD, 4T1 tumour model; type: in vivo
Method: Female Balb/c mice were inoculated with 5×10^5 4T1 cells and randomly divided into 5 groups: normal saline group (N. S), TXT group, docetaxel micells group (TXT-micells), docetaxel and nRGD coadministration group (TXT+nRGD), and docetaxel micells and nRGD coadministration group (TXT-micells+nRGD). The mice were injected with 15 mg/kg TXT equivalents of drugs or various formulations on day 8, day 10 and day 12.

[7] = mouse, in vivo
4T1 tumours [8] = experiment: Screening of the administration manner of nRGD with doxorubicin, 4T1 model; type: in vivo, Balb/c mice; conditions: nRGD in combination with, prior to or after doxorubicin
Method: Female Balb/c mice were inoculated with 5×10^5 4 T1 cells and randomly divided into 3 groups. nRGD was administered in combination with doxorubicin, nRGD was administered prior to doxorubicin or after doxorubicin.

[9] = tested on: tumour vessels and tumour-associated macrophages (TAMs); experiment: In vivo targeting and tumour microenvironment study in 4T1 tumours (immunofluorescence, immunohistochemistry, RT-PCR, ELISA); set-up: species or system Balb/c mice
Method: (§3) Female Balb/c mice were inoculated with 5×10^5 4 T1 cells and randomly divided into 7 groups: saline group (NS), Dox group, PEG-Lipo-Dox group, iRGD-Lipo-Dox group, nRGD-Lipo-Dox group, Dox and nRGD coadministration group (Dox+nRGD), PEGylated liposome and nRGD coadministration group (PEG-Lipo-Dox+nRGD). The mice were injected with 5 mg/kg Dox equivalents of drugs or various formulations on day 8 and day 12. The single dose of the coadministration group included two shoots; one shoot was an equivalent drug or formulation of 5 mg/kg Dox, while the other shoot was 4.8 mg/kg nRGD. The volume and body weight of the mice were measured every two days. Some mice were sacrificed for mechanism and toxicity study on day 20. The average tumour growth inhibition (TGI) was calculated after tumour weighing: TGI=(1−(mean tumour weight of treatment group/(average tumour weight of control group))×100%. The antitumour effect and mechanism were studied by HE, immunohistochemistry, RT-PCR, immunofluorescence and ELISA. Plasma samples were collected for ELISA detection. Tissue samples were evaluated for toxicity by HE staining. The remaining mice were studied for survival time.

glioma = experiment: Glioma model survival; type: in vivo, mice; conditions: lycobetaine and octreotide liposomes, peptide as a mixture or on the liposome surface
Source text: Mice having glioma were randomly divided into 9 groups, 20 mice each: normal saline group (N.S), teniposide group, free lycobetaine and octreotide group (free IBT & OCT), lycobetaine and octreotide PEGylated liposomes group (PEG-Liposome), liposomes and iRGD coadministration group (PEG-Liposome+iRGD), liposomes and nRGD coadministration group (PEG-Liposome+nRGD), iRGD modified lycobetaine and octreotide PEGylated liposomes (iRGD-Liposome), nRGD modified lycobetaine and octreotide PEGylated liposomes (nRGD-Liposome), liposomes and nRGD coadministration group (blank). The mice were injected with 10 mg/kg IBT and […] OCT equivalents of drugs or various formulations on day 5, day 7, day 9, day 11 and day 12. As positive control group, mice were injected with 10 mg/kg teniposide on day 5, day 7, day 9, day 11 and day 12. […] The survival of the mice was recorded daily and the survival curve was plotted.

4T1 tumours [10] = experiment: Evaluation of peptide-bond linked RGD-AAN peptides with doxorubicin, 4T1 model; type: in vivo, Balb/c mice; conditions: doxorubicin 5 mg/kg with peptide
Method: as §1

4T1 cells = experiment: Median lethal dose (IC50) against 4T1 cells at 24 h; type: cell-based
Source text: as §2

HUVEC = experiment: Median lethal dose (IC50) against HUVEC at 24 h; type: cell-based; conditions: n = 3
Source text: as §2

Raw 264.7 cells = experiment: Median lethal dose (IC50) against Raw 264.7 cells at 24 h; type: cell-based
Source text: as §2

4T1 tumours [11] = experiment: Pharmacodynamics of doxorubicin and its liposomes in 4T1 tumour model; type: in vivo, Balb/c mice; conditions: day 20
Method: as §3

legumain = target: T1, legumain (UniProt O89017 18-325, limits assumed); experiment: cell-based or functional assay
T1 sequence (looked up): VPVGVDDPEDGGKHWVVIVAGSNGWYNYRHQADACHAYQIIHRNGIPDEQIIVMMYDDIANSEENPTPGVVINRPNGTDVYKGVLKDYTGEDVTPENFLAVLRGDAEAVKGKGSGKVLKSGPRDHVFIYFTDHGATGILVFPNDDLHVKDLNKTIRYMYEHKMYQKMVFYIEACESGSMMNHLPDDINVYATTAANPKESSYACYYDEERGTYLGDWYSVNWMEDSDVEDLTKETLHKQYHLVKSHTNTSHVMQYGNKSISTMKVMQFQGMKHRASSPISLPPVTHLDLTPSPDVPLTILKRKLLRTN

CRGD-4Abu-NAA (CRGD[GABA]NAA)
efficacy of doxorubicin (4T1 tumours [1]): can improve the efficacy of doxorubicin

CCRGDK(NAA)GPDC (CCRGDKGPDC) [nRGD]
Dox antitumour efficacy versus nRGD concentration (4T1 tumours [2]): positively correlated with Dox antitumour efficacy | anti-tumour efficacy (4T1 tumours [3]; 10 mg/kg PTX equivalents day 8, 12, 16 with 4.8 mg/kg nRGD): increased the anti-tumour efficacy of PTX and PTX-BSA | body weight and toxicity (4T1 tumours [3]; mouse, in vivo): did not reduce the body weight of the mice or increase the toxicity | anti-tumour efficacy (4T1 tumours [4]; 12 mg/kg IBT equivalents day 8, 9, 10 with 4.8 mg/kg nRGD): increased the anti-tumour efficacy of PTX and PTX-BSA | body weight and toxicity (4T1 tumours [4]; mouse, in vivo): did not reduce the body weight of the mice or increase the toxicity | cell uptake [5]: significantly reduced compared to iRGD | anti-tumour efficacy (4T1 tumours [6]; 15 mg/kg TXT equivalents day 8, 10, 12 with 4.8 mg/kg nRGD): increased the anti-tumour efficacy of TXT and TXT-micells | body weight and toxicity (4T1 tumours [6]; mouse, in vivo): did not reduce the body weight of the mice or increase the toxicity | weight of mice [7]: did not reduce the weight of mice | anti-tumour effects of different manners of administration (4T1 tumours [8]): no significant differences | accumulation of Dox in the tumour site ([9]; tumour sections): increased the accumulation of Dox in the tumour site | life period (glioma): longer life period than the iRGD group

c(RGDfK)-4Abu-AAN (cyclo(RGD[dF]K[GABA]AAN); not fully specified)
efficacy of doxorubicin (4T1 tumours [1]): can improve the efficacy of doxorubicin

c(RGDfK)AAN (cyclo(RGD[dF]KAAN); also: attachment point of AAN on cyclic RGDfK not given here)
efficacy of doxorubicin (4T1 tumours [10]): can improve the efficacy of doxorubicin

COc1cccc2c1C(=O)c1c(O)c3c(c(O)c1C2=O)C[C@@](O)(C(=O)CO)C[C@@H]3O[C@H]1C[C@H](N)[C@H](O)[C@H](C)O1 [Dox, doxorubicin]
IC50 Dox, 4T1 CoCl2 (4T1 cells; n = 3, CoCl2 stimulated): 16.54 ± 2.57 µg/mL (≈ 30.4 µM) | IC50 Dox, 4T1 control (4T1 cells; n = 3, untreated cells): 26.56 ± 1.96 µg/mL (≈ 48.9 µM) | IC50 Dox, HUVEC (HUVEC): 18.12 ± 6.13 µg/mL (≈ 33.3 µM) | IC50 Dox, Raw264.7 IL-4 (Raw 264.7 cells; n = 3, IL-4 stimulated): 0.36 ± 0.07 µg/mL (≈ 0.662 µM) | IC50 Dox, Raw264.7 LPS (Raw 264.7 cells; n = 3, LPS stimulated): 0.81 ± 0.22 µg/mL (≈ 1.49 µM) | IC50 Dox, Raw264.7 Control (Raw 264.7 cells; n = 3, untreated cells): 0.41 ± 0.08 µg/mL (≈ 0.754 µM) | tumour weight (4T1 tumours [11]; 5 mg/kg Dox equivalents on day 8 and day 12, coadministration with 4.8 mg/kg nRGD): 1592.0 ± 98.0 mg | tumour growth inhibition rate (TGI) (4T1 tumours [11]; from tumour weight versus control group): 26.3% | number of regulatory T cells and MDSCs at the tumour sites ([9]; mouse, in vivo): increased

CRGDNAA (not fully specified (residue 4))
efficacy of doxorubicin (4T1 tumours [10]): can improve the efficacy of doxorubicin

B1: nRGD polypeptide CCRGDK(NAA)GPDC, coupled to the surface of doxorubicin liposomes (nRGD-Lipo-Dox) (peptide)
peptide: CCRGDKGPDC
modifications: disulfide 2-10; not fully specified (residue 6); printed as CCRGDK(NAA)GPDC; also: coupled to Mal-PEG2000-DSPE liposome via cysteine
Median lethal dose (IC50) of Dox, 4T1 cells stimulated with CoCl2, 24 h (legumain): 37.9 µg/mL | Median lethal dose (IC50) of Dox, Raw264.7 cells stimulated with IL-4, 24 h (legumain): 23.5 µg/mL
